Experimental data taken from PMC3608651, “A Broad Profile of Co-Dominant Epitopes Shapes the Peripheral Mycobacterium tuberculosis Specific CD8+ T-Cell Immune Response in South African Patients with Active Tuberculosis” (PLoS ONE, 2013).
Read-outs that look alike come from different tables or passages of the source. Marks after values point to notes of the source that are not given here.

Key:
HLA-A*02:01 [1] = molecular target: T1, HLA-A*02:01 (Homo sapiens, UniProt P04439, D140Y/D185E/D98H/E176V/E277Q/G131W/G231S/I119V/I121R/I166T/I218V/L300P/L318F/N151K/N90K/P208A/P217A/Q86G/Q94H/R138H/R169H/T345S); conditions: cited from earlier work
HLA-A*02:01 [2] = molecular target: T1, HLA-A*02:01; conditions: cited from earlier work; remark: listed apart in the source
HLA-A*02:01 [3] = molecular target: T1, HLA-A*02:01; conditions: percent relative the binding of a positive control peptide, cited from earlier work
HLA-A*68:01 [4] = molecular target: T2, HLA-A*68:01 (Homo sapiens, UniProt P04439, A269V/D185E/E176V/E277Q/E87N/F33Y/G231S/I121M/I166T/I218V/L180W/L300P/L318F/N151K/P208A/P217A/Q86R/R169H/T345S); type: binding; conditions: percent relative the binding of positive control peptide […]; duplicated experiments; positive binder >40%
HLA-A*68:01 [5] = molecular target: T2, HLA-A*68:01; type: binding
HLA-C*07:01 [6] = molecular target: T3, HLA-C*07:01 (Homo sapiens, UniProt P10321, K90N/S123Y); type: binding; conditions: percent relative the binding of positive control peptide […]; duplicated experiments; positive binder >40%
HLA-A*30:02 [7] = molecular target: T4, HLA-A*30:02 (Homo sapiens, UniProt P04439, D101N/D140H/D185E/E176R/F33S/G80R/H175R/K168Q/Q94H/R138E/R41S/V100E); conditions: cited from earlier work
HLA-A*30:02 [8] = molecular target: T4, HLA-A*30:02; conditions: cited from earlier work; remark: listed apart in the source
HLA-A*68:01 [9] = molecular target: T2, HLA-A*68:01; type: binding; conditions: time points 0-8 h
HLA-B*58:01 [10] = molecular target: T5, HLA-B*58:01 (Homo sapiens, UniProt P01889, A329T/C349S/D201E/D98Y/E176V/E187L/E204Q/E69T/G107R/I218V/I90N/K202T/L105A/L119I/N104I/N87E/Q89R/Q94S/R106L/R155S/R180L/R86G/S101N/S121R/S35A/S48A/T118I/V127L/V306I/V36M/Y140S/Y91M); type: binding; conditions: percent relative the binding of positive control peptide […]; duplicated experiments; positive binder >40%
HLA-A*30:02 [11] = molecular target: T4, HLA-A*30:02; conditions: percent relative the binding of a positive control peptide, cited from earlier work
HLA-A*24:02 [12] = molecular target: T6, HLA-A*24:02 (Homo sapiens, UniProt P04439, D101N/D140Y/D185E/E176V/E190D/F33S/G103R/G107R/I119L/I121M/I306V/K335N/L105A/L180Q/L300P/N151K/N90K/Q86E/Q94H/R106L/R138H/R89G/T104I/T345S/V100E/W191G/Y123F); type: binding
HLA-A*02:01 [13] = molecular target: T1, HLA-A*02:01; type: binding
HLA-A*24:02 [14] = molecular target: T6, HLA-A*24:02; type: binding; remark: listed apart in the source
HLA-B*07:02 = HLA-B*07:02 (Homo sapiens, UniProt P01889); type: binding
HLA-A*02:01 [15] = molecular target: T1, HLA-A*02:01; type: binding; remark: listed apart in the source
HLA-A*24:02 [16] = molecular target: T6, HLA-A*24:02; type: binding; remark: listed apart in the source
HLA-A*02:01 [17] = molecular target: T1, HLA-A*02:01; type: binding; remark: listed apart in the source
HLA-A*30:02 [18] = molecular target: T4, HLA-A*30:02; type: binding; conditions: percent relative the binding of positive control peptide […]; duplicated experiments; positive binder >40%
HLA-A*30:01 = HLA-A*30:01 (Homo sapiens, UniProt P04439, D140H/D185E/E176W/F33S/G80R/H175R/K168Q/R138E/R41S); type: binding; conditions: percent relative the binding of positive control peptide […]; duplicated experiments; positive binder >40%
HLA-A*30:02 [19] = molecular target: T4, HLA-A*30:02; type: binding
HLA-C*07:01 [20] = molecular target: T3, HLA-C*07:01; test: off-rate assay (t1/2); type: binding; conditions: time points 0-8 h
HLA-C*07:01 [21] = molecular target: T3, HLA-C*07:01; test: affinity assay (ED50); type: binding
HLA-A*30:02 [22] = molecular target: T4, HLA-A*30:02; type: binding; conditions: time points 0-8 h
HLA-B*58:01 [23] = molecular target: T5, HLA-B*58:01; type: binding
HLA-B*58:01 [24] = molecular target: T5, HLA-B*58:01; type: binding; conditions: time points 0-8 h
[25] = percent relative the binding of positive control peptide […], duplicated experiments, positive binder >40%
[26] = percent relative the binding of positive control peptide […], plate-bound monomer 0.5 µg/ml, duplicated experiments, positive binder >40%

MLGHAGDMA [Rv0288_11–19wt]
O-rate A*02:01 (t1/2) (HLA-A*02:01 [1]; wild-type epitopes marked *): 1.4 h
Aff A*02:01 (ED50) (HLA-A*02:01 [2]; wild-type epitopes marked *): 7e-07 M
Bind A*02:01 (HLA-A*02:01 [3]; wild-type epitopes marked *): 67* percent

HAMSSTHEA [Rv0288_70–78]
Bind A*68:01 (HLA-A*68:01 [4]): 77%
Aff A*68:01 (ED50) (HLA-A*68:01 [5]): 6e-06 M
Bind C*07:01 (HLA-C*07:01 [6]): 6%
O-rate A*30:02 (t1/2) (HLA-A*30:02 [7]): 0.6 h
O-rate A*02:01 (t1/2) (HLA-A*02:01 [1]): 2.5 h
Aff A*30:02 (ED50) (HLA-A*30:02 [8]): 300 nM
Aff A*02:01 (ED50) (HLA-A*02:01 [2]): 6e-06 M
Bind A*02:01 (HLA-A*02:01 [3]; […]): 43* percent
O-rate A*68:01 (t1/2) (HLA-A*68:01 [9]): 0.5 h
Bind B*58:01 (HLA-B*58:01 [10]): 16%
Bind A*30:02 (HLA-A*30:02 [11]; […]): 88** percent

GHAGDMAGY [Rv0288_13–21wt]
O-rate A*30:02 (t1/2) (HLA-A*30:02 [7]; wild-type epitopes marked **): 1.3 h
Aff A*30:02 (ED50) (HLA-A*30:02 [8]; wild-type epitopes marked **): 40 nM
Bind A*30:02 (HLA-A*30:02 [11]; wild-type epitopes marked **): 71** percent

YQSGLSIVM
Bind A*24:02 (HLA-A*24:02 [12]): 59
Aff A*02:01 (ED50) (HLA-A*02:01 [13]): 50 nM
O-rate A*24:02 (t1/2) (HLA-A*24:02 [14]): 1.5 h
Bind B*07:02 (HLA-B*07:02): 2
Bind A*68:01 (HLA-A*68:01 [4]): 7%
Bind A*02:01 (HLA-A*02:01 [15]): 142
Aff A*24:02 (ED50) (HLA-A*24:02 [16]): 500 nM
Bind C*07:01 (HLA-C*07:01 [6]): 68%
O-rate A*02:01 (t1/2) (HLA-A*02:01 [17]): 3.1 h
Bind A*30:02 (HLA-A*30:02 [18]): 123%
Bind A*30:01 (HLA-A*30:01): 27%
Aff A*30:02 (ED50) (HLA-A*30:02 [19]): 8E -07 M
Bind B*58:01 (HLA-B*58:01 [10]): 0%
O-rate C*07:01 (t1/2) (HLA-C*07:01 [20]): 0.3 h
Aff C*07:01 (ED50) (HLA-C*07:01 [21]): 7E -09 M
O-rate A*30:02 (t1/2) (HLA-A*30:02 [22]): 0.4 h

AYHAMSSTH [Rv0288_68–76wt]
O-rate A*30:02 (t1/2) (HLA-A*30:02 [7]; wild-type epitopes marked **): 1.2 h
Aff A*30:02 (ED50) (HLA-A*30:02 [8]; wild-type epitopes marked **): 300 nM
Bind A*30:02 (HLA-A*30:02 [11]; wild-type epitopes marked **): 70** percent

SLGAEIAVE [Rv0288_27–35wt]
O-rate A*02:01 (t1/2) (HLA-A*02:01 [1]; wild-type epitopes marked *): 1.8 h
Aff A*02:01 (ED50) (HLA-A*02:01 [2]; wild-type epitopes marked *): 1e-05 M
Bind A*02:01 (HLA-A*02:01 [3]; wild-type epitopes marked *): 28* percent

MAGSSAMIL
Bind A*24:02 (HLA-A*24:02 [12]; [25]): 26%
Aff A*02:01 (ED50) (HLA-A*02:01 [13]; […], peptide quantity for 50% binding saturation): 700 nM
Bind B*07:02 (HLA-B*07:02; [25]): 57%
Bind A*68:01 (HLA-A*68:01 [4]): 0%
Bind A*02:01 (HLA-A*02:01 [15]; [26]): 54%
Aff B*58:01 (ED50) (HLA-B*58:01 [23]): 9e-09 M
O-rate B*58:01 (t1/2) (HLA-B*58:01 [24]): 0.8 h
Bind C*07:01 (HLA-C*07:01 [6]): 94%
O-rate A*02:01 (t1/2) (HLA-A*02:01 [17]; time points 0-8 h, time when 50% of peptide has dissociated): 0.4 h
Bind A*30:02 (HLA-A*30:02 [18]): 13%
Bind A*30:01 (HLA-A*30:01): 0%
Bind B*58:01 (HLA-B*58:01 [10]): 55%
O-rate C*07:01 (t1/2) (HLA-C*07:01 [20]): 0.5 h
Aff C*07:01 (ED50) (HLA-C*07:01 [21]): 1E -08 M

SQIMYNYPA [Rv0288_2–10wt]
O-rate A*30:02 (t1/2) (HLA-A*30:02 [7]): 0.3 h
O-rate A*02:01 (t1/2) (HLA-A*02:01 [1]): 4.9* h
Aff A*30:02 (ED50) (HLA-A*30:02 [8]): 2000 nM
Aff A*02:01 (ED50) (HLA-A*02:01 [2]): 4E-07* M
Bind A*02:01 (HLA-A*02:01 [3]; […]): 78* percent
Bind A*30:02 (HLA-A*30:02 [11]; […]): 46** percent

QSLGAEIAV [Rv0288_26–34wt]
Aff B*58:01 (ED50) (HLA-B*58:01 [23]): 0.0002 M
O-rate B*58:01 (t1/2) (HLA-B*58:01 [24]): 0.1 h
Aff A*02:01 (ED50) (HLA-A*02:01 [2]): 2e-06 M
Bind A*02:01 (HLA-A*02:01 [3]; […]): 48* percent
Bind B*58:01 (HLA-B*58:01 [10]): 30%

SSAMILAAY
Bind A*24:02 (HLA-A*24:02 [12]; [25]): 36%
Bind B*07:02 (HLA-B*07:02; [25]): 4%
Bind A*68:01 (HLA-A*68:01 [4]): 101%
Aff A*68:01 (ED50) (HLA-A*68:01 [5]): 1E -07 M
Bind A*02:01 (HLA-A*02:01 [15]; [26]): 0%
Aff B*58:01 (ED50) (HLA-B*58:01 [23]): 2E -08 M
O-rate B*58:01 (t1/2) (HLA-B*58:01 [24]): 0.8 h
Bind C*07:01 (HLA-C*07:01 [6]): 41%
Bind A*30:02 (HLA-A*30:02 [18]): 118%
Bind A*30:01 (HLA-A*30:01): 0%
Aff A*30:02 (ED50) (HLA-A*30:02 [19]): 7E -09 M
O-rate A*68:01 (t1/2) (HLA-A*68:01 [9]): 1.8 h
Bind B*58:01 (HLA-B*58:01 [10]): 90%
O-rate C*07:01 (t1/2) (HLA-C*07:01 [20]): 1.6 h
Aff C*07:01 (ED50) (HLA-C*07:01 [21]): 4E -07 M
O-rate A*30:02 (t1/2) (HLA-A*30:02 [22]): 3.6 h
